Tests used:
[1] = tested on: Hepatitis C virus; test: Antiviral activity against HCV genotype 1b infected in Ava5 cells assessed as inhibition of viral replication after 3 days by blot hybridization analysis; assay type: functional, organism-based, Hepacivirus hominis; settings: Ava5, 72 h
[2] = Cytotoxicity against human Ava5 cells after 3 days by neutral red dye assay; assay type: cell-based
[3] = Selectivity index, ratio of CC50 for human Ava5 cells to EC50 for HCV genotype 1b infected in human Ava5 cells
[4] = Cytotoxicity against human Huh7.5 cells after 3 days by neutral red dye assay; assay type: cell-based, Huh-7
[5] = tested on: Canis familiaris; test: Drug metabolism in dog assessed as deactyl derivative formation at 1 mg/kg, iv after 1 hr; assay type: ADME, organism-based, Canis lupus familiaris; design: dose 1 mg/kg, route intravenous; settings: in vivo
[6] = tested on: Canis familiaris; test: Drug metabolism in dog assessed as glucurono-conjugate formation at 1 mg/kg, iv after 2 hrs; assay type: ADME, organism-based, Canis lupus familiaris; design: dose 1 mg/kg, route intravenous; settings: in vivo
[7] = tested on: Hepatitis C virus; test: Antiviral activity against HCV genotype 1a infected in Huh7.5 cells assessed as inhibition of viral replication after 3 days by blot hybridization analysis; assay type: functional, organism-based, Hepacivirus hominis; settings: subtype 1a, Huh7.5, 72 h
[8] = Toxicity in po dosed dog; assay type: organism-based, Canis lupus familiaris; settings: in vivo
[9] = organism: Rattus norvegicus; test: Toxicity in rat; assay type: organism-based; settings: in vivo
[10] = Selectivity index, ratio of CC50 for human Huh7.5 cells to EC50 for HCV genotype 1a infected in human Huh7.5 cells; design: species or system Huh-7
[11] = Aqueous solubility of the compound; assay type: physicochemical; settings: buffer

| Compound | EC50 [1] | EC90 [1] | CC50 at 72 h [2] | Ratio CC50/EC50 [3] | CC50 at 72 h [4] | Drug metabolism [5] | Drug metabolism [6] | EC50 [7] | EC90 [7] | MTD [8] | Activity [9] | Ratio CC50/EC50 [10] | solubility [11] |
| --- | --- | --- | --- | --- | --- | --- | --- | --- | --- | --- | --- | --- | --- |
| Cc1cnc(NC(=O)c2ccccc2O)s1 | 4.2 µM | 14 µM | 45 µM | 11 |  |  |  |  |  |  |  |  |  |
| O=C(Nc1ncc(Cl)s1)c1ccccc1O | 10 µM | 10 µM | 15 µM |  |  |  |  |  |  |  |  |  |  |
| Cc1ccc(O)c(C(=O)Nc2ncc(Cl)s2)c1 | > 10 µM | > 10 µM | 2.3 µM |  | 16 µM | Active | Active | 10 µM | 10 µM |  |  |  |  |
| Cc1ccc(C(=O)Nc2ncc(Cl)s2)c(O)c1 | > 10 µM | > 10 µM | 30 µM |  |  |  |  |  |  |  |  |  |  |
| Cc1cccc(C(=O)Nc2ncc(Br)s2)c1O | > 1.9 µM | > 10 µM | 15 µM | 11 | 25 µM |  |  | > 10 µM | > 10 µM | < 25 mg/kg | Toxic |  |  |
| CC(=O)Oc1ccccc1C(=O)Nc1ncc(Br)s1 | 3.8 µM | 11 µM | 12 µM | 3 | 21 µM |  |  | 3.3 µM | 10 µM |  |  | 6 |  |
| CC(=O)Oc1ccc(C)cc1C(=O)Nc1ncc(Br)s1 | 3 µM | 7.8 µM | 10 µM | 3.3 | 11 µM |  |  | 3 µM | 8.6 µM |  |  | 3.7 |  |
| O=C(Nc1ncc(Br)s1)c1ccccc1O | 4.9 µM | 10 µM | 20 µM | 20 | 88 µM |  |  | 2.8 µM | 9.4 µM |  |  | 31.4 |  |
| Cc1nc(NC(=O)c2ccccc2O)sc1Br | > 10 µM | > 10 µM | 15 µM |  |  |  |  |  |  |  |  |  |  |
| O=C(Nc1ncc(F)s1)c1ccccc1O | > 10 µM | > 10 µM | 24 µM |  | 2.9 µM |  |  | > 10 µM | > 10 µM |  |  |  |  |
| O=C(Nc1nc(-c2ccccc2)c(Br)s1)c1ccccc1O | > 2.2 µM | > 7 µM | 16 µM | 7.3 | 62 µM |  |  | > 10 µM | > 10 µM |  |  |  |  |
| O=C(Nc1ncc(Br)s1)c1cccc(Cl)c1O | > 5.2 µM | > 10 µM | 10 µM | 2.7 | 11 µM |  |  | > 10 µM | > 10 µM |  |  |  |  |
| CC(=O)Nc1cnc(NC(=O)c2ccccc2O)s1 | > 10 µM | > 10 µM | 11 µM |  |  |  |  |  |  |  |  |  |  |
| CS(=O)(=O)c1csc(NC(=O)c2ccccc2O)n1 | 0.5 µM | 1.7 µM | 85 µM | 170 |  |  |  |  |  |  |  |  |  |
| N#Cc1cnc(NC(=O)c2ccccc2O)s1 | > 10 µM | > 10 µM | 15 µM | 4.1 | 11 µM |  |  | > 10 µM | > 10 µM |  |  |  |  |
| CC(=O)Oc1ccccc1C(=O)Nc1ccc(Br)cc1 | 0.45 µM | 3.4 µM | 0.6 µM | 1.3 |  |  |  |  |  |  |  |  |  |
| CC(=O)Oc1ccccc1C(=O)Nc1ncc(Cl)s1 | 0.23 µM | 1.1 µM | 4.3 µM | 16 | 5.7 µM |  |  | 0.4 µM | 1.9 µM |  |  | 14 |  |
| O=C(Nc1ncc([N+](=O)[O-])s1)c1cc(Cl)ccc1O | 2 µM | 5.9 µM | > 100 µM | >50 |  |  |  |  |  |  |  |  |  |

| Compound | EC50 [1] | EC90 [1] | CC50 at 72 h [2] | Ratio CC50/EC50 [3] | CC50 at 72 h [4] | Drug metabolism [5] | Drug metabolism [6] | EC50 [7] | EC90 [7] | MTD [8] | Activity [9] | Ratio CC50/EC50 [10] | solubility [11] |
| --- | --- | --- | --- | --- | --- | --- | --- | --- | --- | --- | --- | --- | --- |
| CC(=O)Oc1c(C)cccc1C(=O)Nc1ncc(Cl)s1 | 0.59 µM | 8.9 µM | 12 µM | 11 | 14 µM |  |  | 1 µM | 3.8 µM |  |  | 14 |  |
| CC(=O)Oc1ccccc1C(=O)Nc1ncc(C(F)(F)F)s1 | > 4.3 µM | > 8.2 µM | 1.7 µM | 0.9 | 14 µM |  |  | > 10 µM | > 10 µM |  |  |  | soluble |
| CC(=O)Oc1ccccc1C(=O)Nc1nc(C(F)(F)F)cs1 | > 10 µM | > 10 µM | 2.8 µM |  |  |  |  |  |  |  |  |  | soluble |
| CCOC(=O)c1cnc(NC(=O)c2ccccc2O)s1 | > 10 µM | > 10 µM | 14 µM |  |  |  |  |  |  |  |  |  |  |
| C[S+]([O-])c1csc(NC(=O)c2ccccc2O)n1 (stereo unspecified) | 2 µM | 4.6 µM | 63 µM | 32 |  |  |  |  |  |  |  |  |  |
| CC(=O)Oc1ccccc1C(=O)Nc1cccc(F)c1 | 3.8 µM | 11 µM | > 100 µM | 26 |  |  |  |  |  |  |  |  |  |
| O=C(Nc1cccc(F)c1)c1ccccc1O | 0.13 µM | 0.83 µM | 3.4 µM | 26 |  |  |  |  |  |  |  |  |  |
| O=C(Nc1ccccc1Cl)c1ccccc1O | 3.8 µM | 21 µM | 72 µM | 19 |  |  |  |  |  |  |  |  |  |
| COC(=O)c1ccc(NC(=O)c2ccccc2OC(C)=O)cc1 | 0.06 µM | 0.46 µM | 4.4 µM | 76 |  |  |  |  |  |  |  |  |  |
| CS(=O)(=O)c1ccc(NC(=O)c2ccccc2O)cc1 | > 10 µM | > 10 µM | > 100 µM |  |  |  |  |  |  |  |  |  |  |
| CS(=O)(=O)c1cnc([N-]C(=O)c2ccccc2O)s1.[Na+] | 1.5 µM | 5.2 µM | 43 µM | 29 |  |  |  |  |  |  |  |  |  |
| O=C(Nc1cc(C(F)(F)F)cc(C(F)(F)F)c1)c1ccccc1O | 3.5 µM | 8.1 µM | 3.7 µM | 1.1 |  |  |  |  |  |  |  |  | soluble |
| O=C(Nc1cc(C(F)(F)F)ccc1Cl)c1ccccc1O | 0.01 µM | 0.03 µM | 0.33 µM | 65.2 |  |  |  |  |  |  |  |  |  |
| O=C(Nc1nc(-c2ccccc2)cs1)c1ccccc1O | > 3.5 µM | ≥ 10 µM | 14 µM | 7.4 | 29 µM |  |  | > 10 µM | > 10 µM |  |  |  |  |
| O=C(Nc1ccc([N+](=O)[O-])cc1Cl)c1cc(Cl)ccc1O [NICLOSAMIDE] | 0.16 µM | 0.7 µM | 10 µM | 16.2 |  |  |  |  |  |  |  |  | soluble |
| CC(=O)Oc1ccccc1C(=O)Nc1ncc([N+](=O)[O-])s1 [NITAZOXANIDE] | 0.21 µM | 0.93 µM | 35 µM | 143 | 49 µM |  |  | 0.33 µM | 1.1 µM |  |  | 149 |  |
| O=C(Nc1ncc([N+](=O)[O-])s1)c1ccccc1O [TIZOXANIDE] | 0.15 µM | 0.81 µM | 15 µM | 100 | 14 µM |  |  | 0.25 µM | 1 µM |  |  | 56 |  |
